According to patent publication US11795615B2 (priority 2015, dated 2023):

Legend:
[1] = Side by side bleaching of Kraft pulp, hand sheet Kappa number, pH and ORP; conditions: for Kappa No.: unbleached 30
[2] = Thermal activation in distilled water at pH 8.5 and 50° C.; assay type: physicochemical; conditions: pH 8.5, 50° C.
[3] = test system: microbial control in water; assay: Microbial control in water at slightly alkaline pH; assay type: cell-based
Source text: In some embodiments, microbial control in water at slightly alkaline pH was compared between peracetate oxidant, […] bleach, peracetic acid and […] dioxide. Alkaline pH is encountered in a variety of applications where microbial control and sanitization is needed, including pulp and paper processing, cooling towers, water treatment and chill tanks in poultry processing. […].

[4] = gas; cited from earlier work
[5] = 20° C.; cited from earlier work
[6] = 1.13 g/L PAA equiv., initial pH 8.2, 30 min

Row | Compound | Kappa No. ([1]; 4.0 g/L PAA equiv., initial pH 7.0, 30 min) | Kappa No. ([1]; 4.0 g/L PAA equiv., initial pH 8.9, 30 min) | Kappa unit reduction (bleaching efficiency) ([1]; hand sheet tests, initial Kappa number 30) | time of stable peracetic acid and hydrogen peroxide concentrations [2] | ORP ([2]; peracetate value within 40 minutes) | performance as antimicrobial disinfectant [3] | Final ORP [1, 6] | Kappa No. [1, 6] | vapor pressure [4] | solubility limit in water [5]
1 | CC(=O)OO [PAA, peracetic acid] | 31 | 29 | only up to one Kappa unit reduction | about 90 minutes | around 280 mV vs SHE | lowest performance | – | – | – | –
2 | chlorine dioxide [ClO2] | – | – | – | – | – | performed well | 896 mV vs SHE | 22 | greater than 1 atm | 0.8 % wt/vol
